Among the data in ChEMBL document CHEMBL1201862, “PubChem BioAssay data set” (2004) are IC50 and AC50 values, retold here.

Experiment [1] deals with T1, Intestinal-type alkaline phosphatase (Homo sapiens, UniProt P09923). Briefly: inhibition of human intestinal alkaline phosphatase – biochemical, dose response (AID 488876). It is filed as functional.
Experiment [2] addresses T2, Alkaline phosphatase, tissue-nonspecific isozyme (Homo sapiens, UniProt P05186).
T2 sequence (P05186 whole entry): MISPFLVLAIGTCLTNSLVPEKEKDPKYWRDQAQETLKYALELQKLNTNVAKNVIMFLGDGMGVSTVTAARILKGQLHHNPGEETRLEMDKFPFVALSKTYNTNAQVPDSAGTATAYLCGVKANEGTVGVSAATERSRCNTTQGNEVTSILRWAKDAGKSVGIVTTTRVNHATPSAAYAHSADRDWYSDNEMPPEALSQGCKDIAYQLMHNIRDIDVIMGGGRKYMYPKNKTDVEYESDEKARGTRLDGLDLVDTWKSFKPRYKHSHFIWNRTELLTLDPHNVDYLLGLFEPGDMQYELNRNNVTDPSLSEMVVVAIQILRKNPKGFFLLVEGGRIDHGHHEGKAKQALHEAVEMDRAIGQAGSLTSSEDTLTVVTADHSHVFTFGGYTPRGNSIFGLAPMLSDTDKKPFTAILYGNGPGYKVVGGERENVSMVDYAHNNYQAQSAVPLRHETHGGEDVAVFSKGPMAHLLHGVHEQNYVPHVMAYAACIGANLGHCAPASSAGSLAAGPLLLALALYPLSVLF
Briefly: TNAP enzyme inhibition by screening hits, dose response, selectivity assay for mouse IAP inhibitor project, biochemical, human TNAP, uHTS hits (AID 488906). It is filed as functional.

The target in experiment [3] is Intestinal-type alkaline phosphatase (Mus musculus, UniProt P24822). As to the kind of experiment: PubChem AID 488785. In kind it is functional.
The target of experiment [4] is T3, Histone-lysine N-methyltransferase NSD2 (Homo sapiens, UniProt O96028).
T3 sequence (O96028 whole entry): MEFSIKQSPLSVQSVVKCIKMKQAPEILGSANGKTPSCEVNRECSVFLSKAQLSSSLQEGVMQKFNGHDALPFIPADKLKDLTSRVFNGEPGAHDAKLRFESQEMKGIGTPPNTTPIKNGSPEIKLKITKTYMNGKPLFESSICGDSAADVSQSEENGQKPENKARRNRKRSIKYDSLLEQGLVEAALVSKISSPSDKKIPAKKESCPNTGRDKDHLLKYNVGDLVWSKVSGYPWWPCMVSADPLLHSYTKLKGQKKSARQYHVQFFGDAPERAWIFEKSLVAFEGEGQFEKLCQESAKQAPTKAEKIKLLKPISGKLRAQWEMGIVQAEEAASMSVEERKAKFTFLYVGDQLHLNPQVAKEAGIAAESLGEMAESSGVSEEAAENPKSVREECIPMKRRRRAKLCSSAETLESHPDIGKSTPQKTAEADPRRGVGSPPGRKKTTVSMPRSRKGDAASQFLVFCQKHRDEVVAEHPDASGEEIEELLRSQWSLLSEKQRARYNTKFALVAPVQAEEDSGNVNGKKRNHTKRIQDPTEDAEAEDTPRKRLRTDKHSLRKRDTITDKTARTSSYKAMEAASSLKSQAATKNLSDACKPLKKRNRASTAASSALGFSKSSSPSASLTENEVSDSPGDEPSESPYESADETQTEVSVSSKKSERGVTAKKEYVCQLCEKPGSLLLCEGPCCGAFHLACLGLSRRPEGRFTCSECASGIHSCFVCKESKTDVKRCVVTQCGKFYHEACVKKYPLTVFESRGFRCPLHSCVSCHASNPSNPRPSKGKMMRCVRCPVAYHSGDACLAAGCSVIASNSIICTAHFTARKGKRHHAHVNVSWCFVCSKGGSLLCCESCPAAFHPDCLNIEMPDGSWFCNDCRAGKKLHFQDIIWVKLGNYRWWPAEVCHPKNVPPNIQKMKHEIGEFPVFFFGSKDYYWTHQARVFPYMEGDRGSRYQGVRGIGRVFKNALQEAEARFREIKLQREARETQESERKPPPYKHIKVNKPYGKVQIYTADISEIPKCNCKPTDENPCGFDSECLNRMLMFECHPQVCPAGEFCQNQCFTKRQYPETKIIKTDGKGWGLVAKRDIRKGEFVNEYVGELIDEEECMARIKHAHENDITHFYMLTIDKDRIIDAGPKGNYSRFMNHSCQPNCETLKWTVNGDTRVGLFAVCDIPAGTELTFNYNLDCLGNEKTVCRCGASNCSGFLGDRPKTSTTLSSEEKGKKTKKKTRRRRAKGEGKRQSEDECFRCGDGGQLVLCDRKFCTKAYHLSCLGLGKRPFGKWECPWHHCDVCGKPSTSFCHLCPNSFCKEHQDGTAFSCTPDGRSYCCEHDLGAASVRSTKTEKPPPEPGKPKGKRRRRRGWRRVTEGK
In kind it is biochemical.

Experiment [5] is described as follows: Counterscreen for AddAB inhibitors: absorbance-based bacterial cell-based high throughput dose response assay for inhibitors of bacterial viability. [Related pubchem assays (depositor defined):AID435030, AID449728, AID449731, AID488942, AID488955, AID488956]. It is filed as functional. Background: The purpose of a counterscreen is to sort out artefacts and off-target activity.

The target in a further experiment is Exodeoxyribonuclease V (Escherichia coli (strain K12), UniProt P04993+P07648+P08394). Briefly: RecBCD inhibition via phage-restricted bacterial growth – absorbance, V66 E. coli, mutant T4 phage, counter-screen for AddAB inhibitor project, dose response (AID 492957). In kind it is functional, cell-based, Escherichia coli str. K-12 substr. MG1655.
Experiment [6] has as its target T1, Intestinal-type alkaline phosphatase. As to the kind of experiment: Dose Response confirmation of uHTS hits from a small molecule inhibitors of human intestinal alkaline phosphatase via a luminescent assay. [Related pubchem assays (depositor defined):AID2544, AID2574]. In kind it is functional.

Broadly, the IC50 is the concentration that gives 50% inhibition. As a reminder, the AC50 is the concentration at which the activity in the assay is half-maximal.

SMILES strings stand for the structures. Calls of active or inactive are those of the source.

T1 sequence (P09923 whole entry): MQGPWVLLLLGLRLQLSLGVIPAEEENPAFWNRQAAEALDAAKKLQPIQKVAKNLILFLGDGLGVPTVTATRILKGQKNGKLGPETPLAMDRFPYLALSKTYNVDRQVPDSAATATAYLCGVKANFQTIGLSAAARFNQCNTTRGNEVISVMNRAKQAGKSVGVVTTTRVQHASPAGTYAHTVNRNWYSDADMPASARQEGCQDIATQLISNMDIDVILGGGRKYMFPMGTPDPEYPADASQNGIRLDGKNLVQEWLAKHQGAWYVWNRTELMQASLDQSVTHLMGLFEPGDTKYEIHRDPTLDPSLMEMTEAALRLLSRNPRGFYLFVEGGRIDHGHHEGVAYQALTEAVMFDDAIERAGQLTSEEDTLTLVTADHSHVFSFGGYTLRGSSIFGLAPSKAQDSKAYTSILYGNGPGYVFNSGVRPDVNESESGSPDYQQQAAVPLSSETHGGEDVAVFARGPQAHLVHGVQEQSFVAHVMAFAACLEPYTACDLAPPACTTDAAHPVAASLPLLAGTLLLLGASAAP
Intestinal-type alkaline phosphatase (Mus musculus, UniProt P24822), sequence (P24822 whole entry): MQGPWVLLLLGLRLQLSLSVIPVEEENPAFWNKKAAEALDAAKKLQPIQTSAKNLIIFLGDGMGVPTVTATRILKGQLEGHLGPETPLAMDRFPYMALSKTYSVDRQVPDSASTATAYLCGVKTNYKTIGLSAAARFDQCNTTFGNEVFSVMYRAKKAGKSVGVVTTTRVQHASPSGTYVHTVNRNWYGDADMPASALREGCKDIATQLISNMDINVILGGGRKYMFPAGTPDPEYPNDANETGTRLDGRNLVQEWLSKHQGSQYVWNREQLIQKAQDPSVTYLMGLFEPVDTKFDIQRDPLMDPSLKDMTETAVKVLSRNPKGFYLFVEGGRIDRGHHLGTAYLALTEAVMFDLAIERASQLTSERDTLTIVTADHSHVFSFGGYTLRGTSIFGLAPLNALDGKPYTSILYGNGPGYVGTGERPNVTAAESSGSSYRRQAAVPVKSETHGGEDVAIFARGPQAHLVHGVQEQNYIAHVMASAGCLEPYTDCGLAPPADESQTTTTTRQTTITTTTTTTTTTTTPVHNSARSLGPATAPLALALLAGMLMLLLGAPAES
Exodeoxyribonuclease V, sequence (P04993 whole entry): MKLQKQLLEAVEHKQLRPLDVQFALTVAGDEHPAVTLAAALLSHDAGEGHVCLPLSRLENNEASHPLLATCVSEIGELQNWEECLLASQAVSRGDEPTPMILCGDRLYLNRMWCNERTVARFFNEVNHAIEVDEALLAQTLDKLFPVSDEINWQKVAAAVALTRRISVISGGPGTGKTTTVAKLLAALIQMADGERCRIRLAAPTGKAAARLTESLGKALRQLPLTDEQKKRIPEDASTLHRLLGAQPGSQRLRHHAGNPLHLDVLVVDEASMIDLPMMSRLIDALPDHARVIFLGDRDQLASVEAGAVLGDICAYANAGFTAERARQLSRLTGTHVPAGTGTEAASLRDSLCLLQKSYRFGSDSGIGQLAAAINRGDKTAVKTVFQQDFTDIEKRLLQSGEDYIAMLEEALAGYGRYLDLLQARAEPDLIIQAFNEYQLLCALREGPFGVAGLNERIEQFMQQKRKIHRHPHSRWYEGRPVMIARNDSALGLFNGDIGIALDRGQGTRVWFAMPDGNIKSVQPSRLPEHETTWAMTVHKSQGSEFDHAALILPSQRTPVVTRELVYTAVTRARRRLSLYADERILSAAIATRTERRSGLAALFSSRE
Exodeoxyribonuclease V, sequence (P07648 whole entry): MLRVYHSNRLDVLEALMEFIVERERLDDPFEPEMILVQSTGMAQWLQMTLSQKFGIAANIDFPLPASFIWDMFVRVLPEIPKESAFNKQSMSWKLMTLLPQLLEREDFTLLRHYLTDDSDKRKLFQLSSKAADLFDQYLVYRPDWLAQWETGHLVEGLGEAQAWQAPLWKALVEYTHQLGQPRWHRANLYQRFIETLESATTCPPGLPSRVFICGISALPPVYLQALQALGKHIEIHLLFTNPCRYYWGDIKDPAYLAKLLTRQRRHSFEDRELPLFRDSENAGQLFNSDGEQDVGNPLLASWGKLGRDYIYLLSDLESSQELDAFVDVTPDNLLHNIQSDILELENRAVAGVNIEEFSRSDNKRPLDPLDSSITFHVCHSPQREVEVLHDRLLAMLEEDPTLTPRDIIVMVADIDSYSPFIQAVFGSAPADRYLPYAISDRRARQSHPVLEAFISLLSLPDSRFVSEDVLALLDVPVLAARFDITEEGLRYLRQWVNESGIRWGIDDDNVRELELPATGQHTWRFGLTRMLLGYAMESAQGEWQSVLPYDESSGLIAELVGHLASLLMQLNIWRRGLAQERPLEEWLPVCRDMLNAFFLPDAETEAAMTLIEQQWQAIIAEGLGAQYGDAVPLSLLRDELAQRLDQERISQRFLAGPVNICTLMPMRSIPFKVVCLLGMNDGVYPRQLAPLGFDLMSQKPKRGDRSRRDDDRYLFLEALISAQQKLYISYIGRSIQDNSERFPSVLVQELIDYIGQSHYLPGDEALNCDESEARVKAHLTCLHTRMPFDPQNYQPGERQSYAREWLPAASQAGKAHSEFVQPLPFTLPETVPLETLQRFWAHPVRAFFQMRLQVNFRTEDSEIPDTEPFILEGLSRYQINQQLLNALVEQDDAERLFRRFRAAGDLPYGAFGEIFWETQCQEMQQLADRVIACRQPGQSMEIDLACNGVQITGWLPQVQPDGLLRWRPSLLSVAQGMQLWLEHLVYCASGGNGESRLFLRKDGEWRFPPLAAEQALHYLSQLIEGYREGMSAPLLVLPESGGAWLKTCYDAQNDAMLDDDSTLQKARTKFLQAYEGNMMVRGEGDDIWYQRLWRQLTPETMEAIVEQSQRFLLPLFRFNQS
Exodeoxyribonuclease V, sequence (P08394 whole entry): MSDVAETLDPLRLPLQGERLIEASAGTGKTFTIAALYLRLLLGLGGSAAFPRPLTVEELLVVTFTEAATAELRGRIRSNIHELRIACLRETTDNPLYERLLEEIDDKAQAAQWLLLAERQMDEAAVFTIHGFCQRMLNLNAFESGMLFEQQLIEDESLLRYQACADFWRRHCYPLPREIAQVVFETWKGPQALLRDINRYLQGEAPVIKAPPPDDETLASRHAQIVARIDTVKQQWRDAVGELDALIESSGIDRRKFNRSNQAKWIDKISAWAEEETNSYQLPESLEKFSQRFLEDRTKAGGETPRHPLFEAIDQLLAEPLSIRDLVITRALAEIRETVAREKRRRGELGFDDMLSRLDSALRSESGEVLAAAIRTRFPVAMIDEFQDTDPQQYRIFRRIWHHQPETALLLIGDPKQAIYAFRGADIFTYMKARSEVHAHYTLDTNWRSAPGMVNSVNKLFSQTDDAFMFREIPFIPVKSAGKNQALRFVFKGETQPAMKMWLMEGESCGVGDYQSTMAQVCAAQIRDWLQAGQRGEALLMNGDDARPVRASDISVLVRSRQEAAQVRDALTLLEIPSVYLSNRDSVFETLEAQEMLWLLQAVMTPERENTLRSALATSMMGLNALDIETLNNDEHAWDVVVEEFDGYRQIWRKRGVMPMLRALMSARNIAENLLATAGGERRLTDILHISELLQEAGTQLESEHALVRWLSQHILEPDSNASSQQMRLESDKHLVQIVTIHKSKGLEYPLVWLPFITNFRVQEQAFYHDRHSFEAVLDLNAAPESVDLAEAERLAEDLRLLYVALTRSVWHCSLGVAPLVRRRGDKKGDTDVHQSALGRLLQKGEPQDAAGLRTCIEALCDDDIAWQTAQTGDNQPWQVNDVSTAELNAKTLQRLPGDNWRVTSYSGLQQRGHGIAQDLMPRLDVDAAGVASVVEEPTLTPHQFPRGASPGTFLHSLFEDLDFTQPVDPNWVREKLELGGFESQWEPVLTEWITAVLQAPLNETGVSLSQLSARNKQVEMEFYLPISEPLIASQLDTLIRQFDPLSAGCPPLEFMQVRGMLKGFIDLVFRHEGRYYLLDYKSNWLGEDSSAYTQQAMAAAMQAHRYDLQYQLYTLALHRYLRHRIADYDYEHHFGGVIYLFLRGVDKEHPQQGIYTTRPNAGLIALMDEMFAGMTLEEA

As for `CN1C(=O)NC(=O)/C(=C/c2ccc([N+](=O)[O-])o2)C1=O`, the IC50 was > 100 µM (inactive) in experiment [1], > 100 µM (inactive) in experiment [2] and 43.8 µM (active) in experiment [3]. Besides, the AC50 in experiment [4] is 15.4 µM (active).
For `Cc1ccc(NC(=O)Cn2cnc3ccccc32)cc1C`, the IC50 (in experiment [5]; on Exodeoxyribonuclease V) was > 119 µM (inactive) throughout.
Consider `O=c1c(O[C@@H]2O[C@H](CO)[C@@H](O)[C@H](O)[C@H]2O)c(-c2ccc(O)c(O)c2)oc2cc(O)cc(O)c12` [ISOQUERCETIN], for which the IC50 is 8.96 µM (active) in experiment [1], 14 µM (active) in experiment [2], 1.66 µM (active) in experiment [3] and 5.25 µM (active) in experiment [6].
